From patent US10168342B2, “Lipid probes and uses thereof” (THE SCRIPPS RESEARCH INSTITUTE, priority 2015, dated 2019)

How the values were obtained:
NENF = biological target: T1, NENF (Homo sapiens, UniProt Q9UMX5); experiment: In vitro gel-based competition of AEA-DA probe labeling of NENF; format: binding; conditions: competitors 1-100 μM, NENF-transfected HEK293T lysates
T1 construct: Full-length cDNAs encoding for the each protein of interest were subcloned into pcDNA3.1 myc-His A; Myc (myc-His of pcDNA3.1 myc-His A); expressed in transfected cells; host or cells: HEK293T (lysates)
Experimental: Full-length cDNAs encoding for the each protein of interest were subcloned into pcDNA3.1 myc-His A (Invitrogen) or used directly for transfections if available in a eukaryotic expression vector. HEK293T cells were grown to ˜70% confluence under standard growth conditions before adding the appropriate cDNA [control cells (“mock”) received an equal amount of empty pcDNA3.1 myc-His A vector] and FuGENE 6 or X-tremeGENE HP (Roche) transfection reagent according to the manufacturer's instructions. Cells were incubated for 36-48 hours before labeling in situ or harvesting for in vitro experiments.
Cell lysates (1.0 mg/mL), the indicated lipid probe (2.5 or 5 μM) and, for recombinant NUCB1 competition experiments, purified hNUCB1 (250 nM) and CaCl2 (100 μM) were mixed on ice. […] The samples were then irradiated with UV light and subjected to previously described click chemistry conditions. As before, each reaction was quenched with 4×SDS loading buffer (17 μL), and proteins were resolved using SDS-PAGE (10% acrylamide gel) and analyzed by in-gel fluorescent scanning on a Hitachi FMBIO-II flatbed fluorescence scanner. NUCB1 competition was quantitatively assessed by measuring the fluorescent intensity of the corresponding gel band using ImageJ 1.48v and normalizing this value by a non-competed gel band to control for loading differences.
Metabolite data are shown as mean±SEM (n=3-5/group). Differences between two groups were determined using Student's t test (unpaired, two-tailed) and significance was denoted for P values<0.05.

human NUCB1 = biological target: T2, human NUCB1 (Homo sapiens, UniProt Q02818); experiment: FluoPol assay / high throughput screen with Fl-AEA and recombinant NUCB1; format: binding; conditions: competitor lipids, recombinant NUCB1
T2 construct: made in house; host or cells: Escherichia coli BL21(DE3)
T2 sequence (Q02818 27-461): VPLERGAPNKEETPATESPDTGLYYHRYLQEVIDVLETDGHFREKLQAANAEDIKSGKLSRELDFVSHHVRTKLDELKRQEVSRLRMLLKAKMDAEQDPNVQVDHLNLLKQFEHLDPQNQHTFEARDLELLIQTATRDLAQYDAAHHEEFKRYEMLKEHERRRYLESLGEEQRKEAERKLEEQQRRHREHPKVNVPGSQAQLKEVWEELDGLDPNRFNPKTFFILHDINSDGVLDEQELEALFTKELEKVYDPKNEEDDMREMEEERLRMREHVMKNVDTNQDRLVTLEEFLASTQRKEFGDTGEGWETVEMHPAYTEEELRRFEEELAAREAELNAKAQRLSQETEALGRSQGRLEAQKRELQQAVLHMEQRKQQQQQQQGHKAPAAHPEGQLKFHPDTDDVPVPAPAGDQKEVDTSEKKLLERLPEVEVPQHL
Experimental: FluoPol conditions were optimized by screening various concentrations of Fl-AEA, hNUCB1, CaCl2 and Pluronic F-127 against positive and negative controls. Arachidonic acid (20 μM final) was used as a positive control, and DMSO as a negative. Additionally, protein-free controls were used to normalize for background signal. […] The Z′-factor for these conditions was determined to be 0.54, indicating a high signal to noise assay.
A 10 μL solution of hNUCB1 (1 μM), Fl-AEA (0.5 μM), CaCl2 (20 μM), and Pluronic F-127 (0.01%) was added to a Greiner 384-well plate. Additionally, in some wells protein was omitted to serve as a blank control for background signal. To the protein containing wells 16,000 compounds (50 nL in DMSO, 2 mM) from the Maybridge Hitfinder library were added by a pin-tool robot. Additionally, on each plate to some wells arachidonic acid (20 μM final) or DMSO were added as positive and negative controls to allow normalization between plates. The plates were allowed to incubate for 5 minutes at room temperature, then fluorescence polarization was measured by measuring fluorescence intensity through polarized 595 nm filters. Hits were selected based on maximal probe competition.

[1] = biological target: T3, lipid-binding proteins in Neuro2a cells (Mus musculus, UniProt P45878); experiment: SILAC MS mapping of lipid probe targets (probe-versus-No UV, probe-versus-probe) in Neuro2a cells; format: cell-based; conditions: protein Fkbp2, AEA-DA probe, No UV control
T3 construct: endogenous in cells; host or cells: Neuro2a

[2] = biological target: T4, lipid-binding proteins in Neuro2a cells (Mus musculus, UniProt P52019); experiment: as above; format: cell-based; conditions: AEA-DA probe vs NoUV
T4 construct: endogenous in cells; host or cells: Neuro2a

[3] = biological target: T5, lipid-binding proteins in Neuro2a cells (Mus musculus, UniProt Q60932); experiment: as above; format: cell-based; conditions: AEA-DA probe vs NoUV
T5 construct: endogenous in cells; host or cells: Neuro2a

[4] = biological target: T6, lipid-binding proteins in Neuro2a cells (Mus musculus, UniProt Q62465); experiment: as above; format: cell-based; conditions: AEA-DA probe vs NoUV
T6 construct: endogenous in cells; host or cells: Neuro2a

[5] = biological target: T7, lipid-binding proteins in Neuro2a cells (Mus musculus, UniProt Q78IK4); experiment: as above; format: cell-based; conditions: protein Apool, AEA-DA probe, No UV control
T7 construct: endogenous in cells; host or cells: Neuro2a

[6] = biological target: T8, lipid-binding proteins in Neuro2a cells (Mus musculus, UniProt Q99JY4); experiment: as above; format: cell-based; conditions: AEA-DA probe vs NoUV
T8 construct: endogenous in cells; host or cells: Neuro2a

[7] = biological target: T9, lipid-binding proteins in A549 cells (Homo sapiens, UniProt O15173); experiment: SILAC MS mapping of UV-dependent lipid probe targets in A549 cells; format: cell-based; conditions: AEA-DA probe vs NoUV
T9 construct: endogenous in cells; host or cells: A549 (PMA-stimulated for the PTGS2 experiments)

[8] = biological target: T10, lipid-binding proteins in A549 cells (Homo sapiens, UniProt P21796); experiment: as above; format: cell-based; conditions: AEA-DA probe vs NoUV
T10 construct: endogenous in cells; host or cells: A549 (PMA-stimulated for the PTGS2 experiments)

[9] = biological target: T11, lipid-binding proteins in A549 cells (Homo sapiens, UniProt P30519); experiment: as above; format: cell-based; conditions: AEA-DA probe vs NoUV
T11 construct: endogenous in cells; host or cells: A549 (PMA-stimulated for the PTGS2 experiments)

[10] = biological target: T12, lipid-binding proteins in A549 cells (Homo sapiens, UniProt P45880); experiment: as above; format: cell-based; conditions: AEA-DA probe vs NoUV
T12 construct: endogenous in cells; host or cells: A549 (PMA-stimulated for the PTGS2 experiments)

[11] = biological target: T13, lipid-binding proteins in A549 cells (Homo sapiens, UniProt Q14534); experiment: as above; format: cell-based; conditions: AEA-DA probe vs NoUV
T13 construct: endogenous in cells; host or cells: A549 (PMA-stimulated for the PTGS2 experiments)

[12] = biological target: T14, lipid-binding proteins in A549 cells (Homo sapiens, UniProt Q86XL3); experiment: as above; format: cell-based; conditions: AEA-DA probe vs NoUV
T14 construct: endogenous in cells; host or cells: A549 (PMA-stimulated for the PTGS2 experiments)

[13] = biological target: T15, lipid-binding proteins in A549 cells (Homo sapiens, UniProt Q9HAW7); experiment: as above; format: cell-based; conditions: AEA-DA probe vs NoUV
T15 construct: endogenous in cells; host or cells: A549 (PMA-stimulated for the PTGS2 experiments)

[14] = biological target: T16, lipid-binding proteins in A549 cells (Homo sapiens, UniProt Q9NS69); experiment: as above; format: cell-based; conditions: AEA-DA probe vs NoUV
T16 construct: endogenous in cells; host or cells: A549 (PMA-stimulated for the PTGS2 experiments)
T16 sequence (Q9NS69 whole entry): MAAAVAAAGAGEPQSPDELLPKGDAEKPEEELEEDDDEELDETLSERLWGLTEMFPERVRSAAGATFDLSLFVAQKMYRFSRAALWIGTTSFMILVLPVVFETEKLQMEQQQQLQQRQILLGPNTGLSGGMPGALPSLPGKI

T1 sequence (Q9UMX5 32-172, species assumed): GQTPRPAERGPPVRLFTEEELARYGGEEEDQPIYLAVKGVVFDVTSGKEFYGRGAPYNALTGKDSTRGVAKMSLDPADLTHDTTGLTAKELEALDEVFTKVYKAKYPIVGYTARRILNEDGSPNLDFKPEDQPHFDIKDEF
T13 sequence (Q14534 whole entry): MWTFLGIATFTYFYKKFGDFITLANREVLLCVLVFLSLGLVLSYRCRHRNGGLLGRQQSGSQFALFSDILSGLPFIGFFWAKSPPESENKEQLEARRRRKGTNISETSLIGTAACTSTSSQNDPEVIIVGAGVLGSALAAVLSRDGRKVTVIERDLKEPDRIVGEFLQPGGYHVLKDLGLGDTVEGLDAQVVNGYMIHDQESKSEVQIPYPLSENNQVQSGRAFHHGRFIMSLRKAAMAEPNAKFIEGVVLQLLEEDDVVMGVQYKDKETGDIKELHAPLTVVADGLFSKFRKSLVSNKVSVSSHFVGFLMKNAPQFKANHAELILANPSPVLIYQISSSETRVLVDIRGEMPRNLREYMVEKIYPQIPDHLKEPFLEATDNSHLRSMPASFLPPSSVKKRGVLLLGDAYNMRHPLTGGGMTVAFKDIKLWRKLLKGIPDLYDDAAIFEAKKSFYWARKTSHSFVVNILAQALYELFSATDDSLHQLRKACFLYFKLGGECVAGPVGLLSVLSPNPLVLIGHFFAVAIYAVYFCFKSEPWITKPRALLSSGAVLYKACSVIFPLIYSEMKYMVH
T5 sequence (Q60932 whole entry): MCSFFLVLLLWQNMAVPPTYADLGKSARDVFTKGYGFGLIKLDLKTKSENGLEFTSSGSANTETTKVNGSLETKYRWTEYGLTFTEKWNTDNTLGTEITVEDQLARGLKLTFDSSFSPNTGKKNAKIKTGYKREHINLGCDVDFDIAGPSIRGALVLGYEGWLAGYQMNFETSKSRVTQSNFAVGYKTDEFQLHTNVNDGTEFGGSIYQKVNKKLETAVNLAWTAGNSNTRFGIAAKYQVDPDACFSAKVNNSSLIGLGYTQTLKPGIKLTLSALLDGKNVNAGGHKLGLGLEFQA
T12 sequence (P45880 whole entry): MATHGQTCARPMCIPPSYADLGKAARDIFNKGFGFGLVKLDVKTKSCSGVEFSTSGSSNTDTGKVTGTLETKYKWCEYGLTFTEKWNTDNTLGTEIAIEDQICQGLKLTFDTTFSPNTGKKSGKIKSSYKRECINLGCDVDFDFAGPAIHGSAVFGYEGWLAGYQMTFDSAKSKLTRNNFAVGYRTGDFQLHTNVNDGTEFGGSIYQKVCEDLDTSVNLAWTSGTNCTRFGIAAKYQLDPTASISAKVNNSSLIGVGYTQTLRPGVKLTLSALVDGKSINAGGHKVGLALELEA
T6 sequence (Q62465 whole entry): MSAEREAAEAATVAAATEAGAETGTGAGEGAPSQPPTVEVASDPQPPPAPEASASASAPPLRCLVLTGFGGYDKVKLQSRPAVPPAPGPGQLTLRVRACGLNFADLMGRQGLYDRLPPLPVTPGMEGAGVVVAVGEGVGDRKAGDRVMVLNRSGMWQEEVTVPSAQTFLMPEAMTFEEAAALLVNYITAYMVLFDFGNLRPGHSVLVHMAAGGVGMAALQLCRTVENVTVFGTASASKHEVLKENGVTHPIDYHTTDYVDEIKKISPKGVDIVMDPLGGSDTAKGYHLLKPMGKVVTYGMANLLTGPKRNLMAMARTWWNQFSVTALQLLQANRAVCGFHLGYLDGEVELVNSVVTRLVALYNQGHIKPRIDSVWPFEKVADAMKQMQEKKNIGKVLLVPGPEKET
T8 sequence (Q99JY4 whole entry): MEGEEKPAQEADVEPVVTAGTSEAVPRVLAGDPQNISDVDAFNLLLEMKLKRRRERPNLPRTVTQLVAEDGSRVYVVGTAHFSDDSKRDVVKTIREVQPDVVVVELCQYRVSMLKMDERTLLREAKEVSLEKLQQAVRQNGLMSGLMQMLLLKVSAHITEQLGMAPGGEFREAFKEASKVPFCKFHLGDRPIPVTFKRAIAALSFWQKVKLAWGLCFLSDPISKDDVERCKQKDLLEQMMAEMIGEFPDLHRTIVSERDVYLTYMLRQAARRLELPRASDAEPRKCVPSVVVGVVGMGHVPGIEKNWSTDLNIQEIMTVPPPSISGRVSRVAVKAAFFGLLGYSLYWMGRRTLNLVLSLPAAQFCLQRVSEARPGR
T4 sequence (P52019 whole entry): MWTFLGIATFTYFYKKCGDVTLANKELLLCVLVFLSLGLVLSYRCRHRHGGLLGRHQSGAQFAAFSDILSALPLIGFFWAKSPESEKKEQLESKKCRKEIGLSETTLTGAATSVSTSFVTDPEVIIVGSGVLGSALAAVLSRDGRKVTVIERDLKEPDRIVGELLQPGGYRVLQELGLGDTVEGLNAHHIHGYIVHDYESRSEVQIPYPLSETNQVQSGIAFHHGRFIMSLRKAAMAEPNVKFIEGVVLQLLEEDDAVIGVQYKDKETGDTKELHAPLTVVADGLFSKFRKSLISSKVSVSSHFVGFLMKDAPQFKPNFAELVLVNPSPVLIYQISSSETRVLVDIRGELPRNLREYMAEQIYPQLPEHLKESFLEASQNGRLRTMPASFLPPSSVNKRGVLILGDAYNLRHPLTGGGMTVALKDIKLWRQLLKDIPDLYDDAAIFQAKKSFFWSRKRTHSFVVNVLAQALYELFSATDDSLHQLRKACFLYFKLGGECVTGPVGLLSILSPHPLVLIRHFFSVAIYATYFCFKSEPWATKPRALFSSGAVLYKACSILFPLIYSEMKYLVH
T11 sequence (P30519 whole entry): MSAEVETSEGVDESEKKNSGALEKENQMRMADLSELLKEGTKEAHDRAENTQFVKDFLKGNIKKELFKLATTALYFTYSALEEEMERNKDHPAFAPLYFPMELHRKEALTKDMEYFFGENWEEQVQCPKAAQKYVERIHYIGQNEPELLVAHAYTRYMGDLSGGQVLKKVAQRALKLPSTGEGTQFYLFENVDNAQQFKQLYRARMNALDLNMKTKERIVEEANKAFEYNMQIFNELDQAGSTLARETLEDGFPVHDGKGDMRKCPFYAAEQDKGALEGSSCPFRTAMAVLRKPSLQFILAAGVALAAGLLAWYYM
T9 sequence (O15173 whole entry): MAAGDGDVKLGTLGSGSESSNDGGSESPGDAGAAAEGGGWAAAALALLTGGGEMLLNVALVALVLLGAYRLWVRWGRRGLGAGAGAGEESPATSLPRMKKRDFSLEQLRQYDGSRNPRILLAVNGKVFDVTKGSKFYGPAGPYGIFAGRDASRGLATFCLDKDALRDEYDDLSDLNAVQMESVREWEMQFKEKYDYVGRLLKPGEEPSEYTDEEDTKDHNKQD
T3 sequence (P45878 23-140): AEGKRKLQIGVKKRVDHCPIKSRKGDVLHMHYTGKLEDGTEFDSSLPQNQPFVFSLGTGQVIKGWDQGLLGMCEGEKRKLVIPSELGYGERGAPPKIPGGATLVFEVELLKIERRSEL
T15 sequence (Q9HAW7 26-530): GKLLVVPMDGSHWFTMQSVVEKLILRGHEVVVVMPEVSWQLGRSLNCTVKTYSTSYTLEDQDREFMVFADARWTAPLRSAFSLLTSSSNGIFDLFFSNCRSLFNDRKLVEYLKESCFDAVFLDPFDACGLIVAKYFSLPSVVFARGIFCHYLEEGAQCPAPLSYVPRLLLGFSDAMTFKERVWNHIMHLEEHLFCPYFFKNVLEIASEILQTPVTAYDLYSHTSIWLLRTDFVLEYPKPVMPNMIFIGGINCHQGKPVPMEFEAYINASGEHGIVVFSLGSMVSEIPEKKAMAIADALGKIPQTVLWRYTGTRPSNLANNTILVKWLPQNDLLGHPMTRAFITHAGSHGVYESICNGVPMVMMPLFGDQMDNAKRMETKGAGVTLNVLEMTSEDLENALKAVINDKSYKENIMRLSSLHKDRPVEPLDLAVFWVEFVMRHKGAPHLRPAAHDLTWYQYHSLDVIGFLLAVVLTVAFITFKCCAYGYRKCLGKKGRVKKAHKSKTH
T14 sequence (Q86XL3 whole entry): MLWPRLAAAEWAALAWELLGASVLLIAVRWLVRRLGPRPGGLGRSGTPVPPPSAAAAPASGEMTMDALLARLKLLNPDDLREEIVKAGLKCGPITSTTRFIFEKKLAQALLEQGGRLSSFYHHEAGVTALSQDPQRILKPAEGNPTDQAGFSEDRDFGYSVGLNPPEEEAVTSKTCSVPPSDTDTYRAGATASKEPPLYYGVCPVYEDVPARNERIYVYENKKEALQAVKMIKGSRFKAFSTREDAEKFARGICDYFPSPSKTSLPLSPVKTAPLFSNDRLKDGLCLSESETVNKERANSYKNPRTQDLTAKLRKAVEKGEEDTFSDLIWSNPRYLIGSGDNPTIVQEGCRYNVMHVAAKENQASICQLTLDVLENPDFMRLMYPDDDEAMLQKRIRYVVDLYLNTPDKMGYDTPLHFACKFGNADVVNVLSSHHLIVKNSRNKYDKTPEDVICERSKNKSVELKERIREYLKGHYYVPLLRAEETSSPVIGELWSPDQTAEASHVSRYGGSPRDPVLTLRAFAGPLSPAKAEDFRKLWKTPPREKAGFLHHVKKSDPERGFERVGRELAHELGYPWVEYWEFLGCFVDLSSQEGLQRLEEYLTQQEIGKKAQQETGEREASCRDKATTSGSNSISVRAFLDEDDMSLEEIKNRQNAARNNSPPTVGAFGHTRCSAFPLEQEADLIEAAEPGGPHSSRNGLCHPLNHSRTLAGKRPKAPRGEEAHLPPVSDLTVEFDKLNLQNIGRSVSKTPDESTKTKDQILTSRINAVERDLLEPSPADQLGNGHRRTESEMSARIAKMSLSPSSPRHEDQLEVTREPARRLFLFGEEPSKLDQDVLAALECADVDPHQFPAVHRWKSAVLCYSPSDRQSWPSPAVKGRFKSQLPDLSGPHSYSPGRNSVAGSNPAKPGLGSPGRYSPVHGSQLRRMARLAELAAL

Structure (SMILES) | competition of AEA-DA probe labeling of recombinant NENF (NENF) | suppression of the NUCB1-FluoPol signal (blockade of Fl-AEA binding) (human NUCB1) | SILAC ratio, AEA-DA probe versus No UV [1] | SILAC ratio, SQLE (Q14534) [2] | SILAC ratio, VDAC1 (P21796) [3] | SILAC ratio, VAT1 (Q99536) [4] | SILAC ratio, AEA-DA probe versus No UV [5] | SILAC ratio, TRABD (Q99JY4) [6] | SILAC ratio, PGRMC2 (Q80UU9) [7] | SILAC ratio, VDAC1 (P21796) [8] | SILAC ratio, HMOX2 (P30519) [9] | SILAC ratio, VDAC2 (P45880) [10] | SILAC ratio, SQLE (Q14534) [11] | SILAC ratio, ANKLE2 (Q86XL3) [12] | SILAC ratio, UGT1A7 (Q9HAW7) [13] | SILAC ratio, TOMM22 (Q9CPQ3) [14]
CCCCC/C=C\C/C=C\C/C=C\C/C=C\CCCC(=O)NCCO [AEA, anandamide, reference compound] | competitively blocked | Concentration-dependent suppression | – | – | – | – | – | – | – | – | – | – | – | – | – | –
C#CCCCC1(CC/C=C\C/C=C\C/C=C\CCCC(=O)NCCO)N=N1 [AEA-DA, (5Z,8Z,11Z)-N-(2-hydroxyethyl)-14-(3-(pent-4-yn-1-yl)-3H-diazirin-3-yl)tetradeca-5,8,11-trienamide] | – | – | 5.6 | 5.0 | 20.0 | 4.4 | 6.4 | 12.0 | 20.0 | 20.0 | 20.0 | 20.0 | 20.0 | 20.0 | 20.0 | 20.0
